Laboratory results reported in ChEMBL document CHEMBL1201862, “PubChem BioAssay data set” (2004).
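Grown in 96-well plates, cells were treated for 48 hours with each compound at five concentrations. Insufficient inhibition: endpoint recorded as highest concentration tested. The concentration for 50% growth inhibition is given as GI50.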 Activity calls are given as the source filed them. No stated cut-off is given here; in the data, active = GI50 up to about 1.1 µM and inactive = higher.

What was measured:
Test in all cases: NCI tumour cell line growth inhibition, 48 h
LXFL 529 = tested on: LXFL 529
MDA-MB-231 = tested on: MDA-MB-231
Hs-578T = tested on: Hs-578T
T47D = tested on: T47D
MDA-N = tested on: MDA-N
PC-3 = tested on: PC-3
MDA-MB-435 = tested on: MDA-MB-435

Measured: GI50

Cc1ccccc1NC(=O)C(=O)C(C1OC(=O)c2ccccc21)[N+](=O)[O-] (centres undefined)
inactive: LXFL 529 > 100 µM

COc1ccccc1-c1cc(O)c2c(C)ccnc2n1
inactive: MDA-MB-231 26.7 µM | Hs-578T 11.5 µM | T47D 16.2 µM

COC(=O)N1CC2C3C4CC(C(c5ccccc5)=C4c4ccccc4)C3C21 (centres undefined)
inactive: MDA-MB-231 7.35 µM | MDA-N 20.4 µM | T47D 9.82 µM | PC-3 10 µM | MDA-MB-435 15.2 µM
